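Tested at 5 concentrations; 48 h exposure; 96-well plates; endpoints linearly interpolated, else capped at highest concentration. The concentration for full growth arrest is given as TGI.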
How the values were obtained:
Assay in all cases: NCI-60 cell line screen, 48 h
U251 CNS = system: U251 CNS
SK-MEL-28 melanoma = system: SK-MEL-28 melanoma
HCT-15 colon = system: HCT-15 colon
HL-60(TB) leukemia = system: HL-60(TB) leukemia
TK-10 renal = system: TK-10 renal
MOLT-4 leukemia = system: MOLT-4 leukemia
NCI-H460 lung = system: NCI-H460 lung
NCI-H23 lung = system: NCI-H23 lung
HOP-62 NSCLC = system: HOP-62 NSCLC
NCI/ADR-RES ovarian = system: NCI/ADR-RES ovarian

Row | SMILES | TGI (U251 CNS) [µM] | TGI (SK-MEL-28 melanoma) [µM] | TGI (HCT-15 colon) [µM] | TGI (HL-60(TB) leukemia) [µM] | TGI (TK-10 renal) [µM] | TGI (MOLT-4 leukemia) [µM] | TGI (NCI-H460 lung) [µM] | TGI (NCI-H23 lung) [µM] | TGI (HOP-62 NSCLC) [µM] | TGI (NCI/ADR-RES ovarian) [µM]
1 | N#CCCn1[nH]c(=O)c(Cl)c(Cl)c1=O | 30.3 | 30.9 | 24.6 | 35.5 | 68.4 | 37.4 | 28.3 | 29.3 | – | –
2 | O=[N+]([O-])c1ccc(C2=Nc3ccccc3S(=O)C(c3ccccc3)C2)cc1 (stereo not drawn) | – | 48.1 | 76.2 | 39.1 | 82.9 | 57.7 | 71 | 36.3 | 84.7 | –
3 | CC(C)OC(=O)c1ccc(NCc2cc(O)ccc2O)cc1 | 17.1 | 29.3 | 9.21 | 1.62 | 14.7 | 10.3 | > 100 | 18 | 31.9 | –
4 | CCOC(=O)c1c2ccc(/C=C/c3ccccn3)ccc-2c(C(=O)OCC)c1N | – | 1.49 | > 100 | > 100 | > 100 | > 100 | > 100 | > 100 | – | –
5 | CCCCCCCC/C=C1\CCC(CN(C)C)C1=O (stereo not drawn) | 4.38 | 13.3 | 7.5 | 22.2 | 6.03 | 10.1 | 28.4 | 24.4 | 24.7 | –
6 | COc1ccc(C2c3cc4c(cc3OC(NNc3ccccc3)C2C)OCO4)cc1 (stereo not drawn) | > 100 | > 100 | > 100 | 20.8 | > 100 | > 100 | > 100 | > 100 | 20.2 | –
7 | CCOC1OC(CO)C(O)CC1n1ccc(=O)[nH]c1=O (stereo not drawn) | > 100 | > 100 | > 100 | – | > 100 | – | > 100 | > 100 | – | > 100
8 | CC1=C(c2nc3ccccc3s2)C(=O)OC1(C)C | > 100 | > 100 | > 100 | – | – | > 100 | > 100 | > 100 | > 100 | –
9 | COCC(C)(C)N=CN1Cc2cc3ccccc3nc2C1 | > 100 | > 100 | > 100 | > 100 | > 100 | > 100 | > 100 | > 100 | > 100 | –
10 | Nc1nc2c(N)cc(C(F)(F)F)cc2nc1-c1ccccc1 | > 100 | > 100 | > 100 | > 100 | > 100 | > 100 | > 100 | > 100 | > 100 | –
11 | O=C1C(c2ccccc2)=C(c2ccccc2)C(c2ccc(Cc3ccc(C4=C(c5ccccc5)C(=O)C(c5ccccc5)=C4c4ccccc4)cc3)cc2)=C1c1ccccc1 | > 100 | – | > 100 | > 100 | > 100 | > 100 | > 100 | > 100 | > 100 | –
12 | CCS(=O)C(=O)N(O)c1ccc(Cl)cc1 (stereo not drawn) | 44.6 | 35.6 | 68.5 | – | > 100 | 25 | – | – | > 100 | 81.4
13 | CCc1n[nH]c(=O)n1CCCCCCCCn1c(CC)n[nH]c1=O | > 100 | – | > 100 | – | > 100 | > 100 | > 100 | > 100 | > 100 | > 100
14 | Cc1cc2ncn(-c3nc4ccccc4nc3C(C#N)S(C)(=O)=O)c2cc1C (stereo not drawn) | > 100 | > 100 | > 100 | > 100 | > 100 | > 100 | > 100 | > 100 | > 100 | –
15 | CC(C)N(C(=O)C12C3C4C1C1C2C3C41C#N)C(C)C (stereo not drawn) | > 100 | > 100 | > 100 | > 59 | > 100 | > 100 | > 100 | > 100 | > 100 | –
16 | CC(C)(C)N=CN1C=Cc2nc3ccccc3cc2C1 | > 100 | > 100 | > 100 | > 100 | > 100 | > 100 | > 100 | > 100 | > 100 | –
17 | COC(=O)C(=O)C(C(=O)OC)C(=O)C(=O)Nc1c(C)cccc1C (stereo not drawn) | > 100 | > 100 | > 100 | > 100 | > 100 | > 100 | > 100 | > 100 | > 100 | –
18 | CC(C)c1cccc(C(C)C)c1NC(=O)C(=O)Cc1nc2ccc([N+](=O)[O-])cc2[nH]c1=O | – | > 100 | 48.9 | > 100 | > 100 | > 100 | > 100 | > 100 | – | –
